PMC12044326 (Clinical Pharmacology in Drug Development, 2025)
Where two headings read alike, the source gives them in different places.

Experiments:
[1] = molecular target: T1, OATP1B3 (Homo sapiens, UniProt Q9NPD5)
T1 sequence (Q9NPD5 1-702): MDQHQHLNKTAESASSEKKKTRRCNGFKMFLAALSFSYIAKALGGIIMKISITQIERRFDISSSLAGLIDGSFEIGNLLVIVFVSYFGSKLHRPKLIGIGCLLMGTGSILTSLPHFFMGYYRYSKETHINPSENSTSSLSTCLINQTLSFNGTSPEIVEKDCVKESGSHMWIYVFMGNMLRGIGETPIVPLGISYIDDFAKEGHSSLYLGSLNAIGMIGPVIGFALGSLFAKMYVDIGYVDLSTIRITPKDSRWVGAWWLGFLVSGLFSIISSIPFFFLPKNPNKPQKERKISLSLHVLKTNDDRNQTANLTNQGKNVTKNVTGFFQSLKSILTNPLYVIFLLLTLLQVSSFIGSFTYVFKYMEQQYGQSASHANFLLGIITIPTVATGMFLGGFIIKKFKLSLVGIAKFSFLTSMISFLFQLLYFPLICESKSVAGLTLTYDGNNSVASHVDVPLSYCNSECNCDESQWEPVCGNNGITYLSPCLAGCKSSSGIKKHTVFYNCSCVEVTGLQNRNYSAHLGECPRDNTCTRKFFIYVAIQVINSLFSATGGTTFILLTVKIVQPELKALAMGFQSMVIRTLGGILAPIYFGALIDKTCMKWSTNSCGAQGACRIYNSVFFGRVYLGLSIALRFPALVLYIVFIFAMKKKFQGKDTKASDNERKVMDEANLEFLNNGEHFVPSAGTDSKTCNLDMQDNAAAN

[2] = molecular target: T2, UGT2B4 (Homo sapiens, UniProt P06133); conditions: both, 20 min, pH 7.4
T2 sequence (P06133 24-528): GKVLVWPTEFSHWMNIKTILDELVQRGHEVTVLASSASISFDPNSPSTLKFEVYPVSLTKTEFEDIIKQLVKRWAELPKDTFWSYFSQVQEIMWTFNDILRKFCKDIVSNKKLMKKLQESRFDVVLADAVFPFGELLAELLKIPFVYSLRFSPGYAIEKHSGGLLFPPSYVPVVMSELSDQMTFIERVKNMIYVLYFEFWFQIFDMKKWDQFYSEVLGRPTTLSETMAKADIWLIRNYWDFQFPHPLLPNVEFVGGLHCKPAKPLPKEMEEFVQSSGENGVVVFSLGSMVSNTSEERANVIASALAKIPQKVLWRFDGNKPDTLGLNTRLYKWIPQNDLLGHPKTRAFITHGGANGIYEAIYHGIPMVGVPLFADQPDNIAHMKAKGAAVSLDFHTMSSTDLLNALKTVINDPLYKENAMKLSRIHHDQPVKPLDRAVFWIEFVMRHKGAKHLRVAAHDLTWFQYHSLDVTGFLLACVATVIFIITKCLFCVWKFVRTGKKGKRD

[3] = ref 6 of supplement, cited from earlier work; for AUC0-inf observed / Cmax observed: geometric mean; for tmax observed: median
[4] = molecular target: CYP2C19 (Homo sapiens, UniProt P33261); assay: Reversible CYP inhibition in human liver microsomes
[5] = molecular target: T3, UGT1A9 (Homo sapiens, UniProt O60656); parameters: with alamethicin-pretreated HLMs (0.5 mg/mL); tissue Sekisui-XenoTech; host or cells: pooled human liver microsomes (200 donors); conditions: predicted by combining in vitro phenotyping and human ADME data; cited from earlier work
T3 sequence (O60656 26-530): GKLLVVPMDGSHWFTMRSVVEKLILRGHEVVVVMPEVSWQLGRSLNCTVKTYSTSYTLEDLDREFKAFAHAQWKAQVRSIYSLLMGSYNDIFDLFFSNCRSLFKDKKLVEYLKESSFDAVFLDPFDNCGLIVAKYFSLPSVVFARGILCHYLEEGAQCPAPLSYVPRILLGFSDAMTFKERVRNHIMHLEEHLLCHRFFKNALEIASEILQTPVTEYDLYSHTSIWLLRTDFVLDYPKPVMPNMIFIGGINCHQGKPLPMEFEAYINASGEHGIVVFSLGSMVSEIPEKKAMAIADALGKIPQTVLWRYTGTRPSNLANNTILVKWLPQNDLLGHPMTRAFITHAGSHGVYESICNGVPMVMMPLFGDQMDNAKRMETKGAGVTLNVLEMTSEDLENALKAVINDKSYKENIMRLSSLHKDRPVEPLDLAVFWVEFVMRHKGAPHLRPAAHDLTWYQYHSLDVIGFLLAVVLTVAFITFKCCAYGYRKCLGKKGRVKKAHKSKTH

[6] = molecular target: T3, UGT1A9; assay: PBPK elimination inputs (retrograde model, fm, KM sensitivity); conditions: PBPK input
[7] = tested on: CYP3A4; conditions: predicted by combining in vitro phenotyping and human ADME data; cited from earlier work
[8] = molecular target: CYP2C9 (Homo sapiens, UniProt P11712); assay: Reversible CYP inhibition in human liver microsomes
[9] = cited from earlier work
[10] = 300 mg single oral dose, geometric mean, clinical ADME study, ref 5 of supplement

CYP2C9, sequence (P11712 whole entry): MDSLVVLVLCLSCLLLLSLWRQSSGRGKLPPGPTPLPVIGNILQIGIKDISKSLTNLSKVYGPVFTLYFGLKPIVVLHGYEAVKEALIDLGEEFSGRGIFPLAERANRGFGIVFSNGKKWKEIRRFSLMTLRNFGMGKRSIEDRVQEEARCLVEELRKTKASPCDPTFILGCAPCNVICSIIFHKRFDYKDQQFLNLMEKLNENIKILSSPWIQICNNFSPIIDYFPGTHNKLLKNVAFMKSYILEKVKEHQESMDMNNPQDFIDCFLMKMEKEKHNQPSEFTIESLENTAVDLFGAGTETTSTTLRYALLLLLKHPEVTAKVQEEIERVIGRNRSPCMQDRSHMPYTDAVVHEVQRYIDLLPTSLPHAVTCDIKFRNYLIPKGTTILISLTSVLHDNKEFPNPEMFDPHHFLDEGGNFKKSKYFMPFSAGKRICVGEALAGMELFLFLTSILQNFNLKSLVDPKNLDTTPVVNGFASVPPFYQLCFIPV
CYP2C19, sequence (P33261 whole entry): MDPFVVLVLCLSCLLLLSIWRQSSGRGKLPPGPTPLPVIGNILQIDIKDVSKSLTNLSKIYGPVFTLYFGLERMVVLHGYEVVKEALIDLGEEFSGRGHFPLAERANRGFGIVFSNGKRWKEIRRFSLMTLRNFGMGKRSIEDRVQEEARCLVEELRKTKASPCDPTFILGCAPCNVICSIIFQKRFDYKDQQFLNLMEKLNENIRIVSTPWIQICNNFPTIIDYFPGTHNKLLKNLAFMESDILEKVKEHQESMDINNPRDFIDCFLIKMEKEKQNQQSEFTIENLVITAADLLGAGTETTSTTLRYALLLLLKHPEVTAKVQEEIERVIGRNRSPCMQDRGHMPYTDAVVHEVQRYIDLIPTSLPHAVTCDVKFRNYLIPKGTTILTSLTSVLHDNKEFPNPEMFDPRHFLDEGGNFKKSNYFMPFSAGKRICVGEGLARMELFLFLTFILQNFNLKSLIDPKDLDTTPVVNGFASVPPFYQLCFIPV

In the case of `O=C(c1cccnc1-c1ccncc1)N1CCC(O)(Cc2ccccc2)CC1` [Soticlestat], the “substrate for OATP1B3” value [1] is given as “not a substrate”, the “fm of total UGT mediated glucuronidation via UGT2B4” value [2] is given as roughly 90% and the AUC0-inf observed ([3]; 15 mg single oral dose) is given as 22.6 ng·h/mL. The Cmax observed ([3]; 15 mg single oral dose) was 33.5 ng/mL, the tmax observed ([3]; 15 mg single oral dose) was 15 min and the AUC0-inf observed ([3]; 50 mg single oral dose) was 134 ng·h/mL. For the same compound, the Cmax observed ([3]; 50 mg single oral dose) was 167 ng/mL, the tmax observed ([3]; 50 mg single oral dose) was 15 min and the AUC0-inf observed ([3]; 200 mg single oral dose) was 591 ng·h/mL. For the same compound, the Cmax observed ([3]; 200 mg single oral dose) was 527 ng/mL, the tmax observed ([3]; 200 mg single oral dose) was 15 min and the AUC0-inf observed ([3]; 600 mg single oral dose) was 4937 ng·h/mL. The Cmax observed ([3]; 600 mg single oral dose) was 3847 ng/mL, the tmax observed ([3]; 600 mg single oral dose) was 30 min and the AUC0-inf observed ([3]; 900 mg single oral dose) was 7454 ng·h/mL. For the same compound, the Cmax observed ([3]; 900 mg single oral dose) was 4814 ng/mL, the AUC0-inf observed ([3]; 1350 mg single oral dose) was 12,699 h.ng/mL and the Cmax observed ([3]; 1350 mg single oral dose) was 7672 ng/mL. The tmax observed ([3]; 1350 mg single oral dose) was 48 min, the Ki [4] was 9.5 µM and the fumic ([4]; human) was 0.88. For the same compound, the “inhibition of CYP2C19” value ([4]; microsomes) was “low double‐digit micromolar values”, the “fm by UGT1A9” value [5] was 9.3% and the fmUGT1A9 [6] was 0.1. The “fm by CYP3A” value [7] was 9.5%, the Ki [8] was 15.6 µM and the fumic ([8]; human) was 0.88. For the same compound, the “inhibition of CYP2C9” value ([8]; microsomes) was “low double‐digit micromolar values”, the AUC0-inf observed [9, 10] was 1294 ng·h/mL and the Cmax observed [9, 10] was 995 ng/mL. For the same compound, the tmax observed ([9]; 300 mg single oral dose, median, clinical ADME study, ref 5 of supplement) was 31.8 min, the “CLIV (mean IV clearance)” value ([9]; IV microdose [14C] soticlestat 50 µg with oral 300 mg) was 28.7 L/h and the “CYP contribution to clearance” value ([9]; human radiolabeled ADME study) was 9.5%. The “cleared by UGT metabolism” value ([9]; human radiolabeled ADME study) was 90.5% and the “CLR (mean renal clearance)” value ([9]; single oral dose [14C] soticlestat 300 mg, healthy volunteers) was 0.22 L/h.
